Test results taken from PMC10630888, “Nuclear ERK1/2 signaling potentiation enhances neuroprotection and cognition via Importinα1/KPNA2” (EMBO Molecular Medicine, 2023).
“And” between values parts separate entries of the source, which are not always exact repeats. Equal values may be shown once.

What was measured:
p44 ERK1 and p42 ERK2 = assay: Western blot of pERK1/2 and total ERK1/2 in HEK293 cells; type: cell-based; conditions: serum-starved HEK 293 cells, 50 μM, 15 min
Experimental: For Western blot and immunofluorescence analysis, 0.6 × 10^6 HEK293 cells were seeded in 6‐well plates in the presence of DMEM High Glucose GlutaMax (Thermo Fisher Scientific) containing 10% Foetal Bovine Serum (FBS, Thermo Fisher Scientific) and 100 U/ml penicillin/streptomycin (Thermo Fisher Scientific). For Western blot analysis to assess ERK1/2 and phospho‐ERK1/2 levels, cells were serum starved for 24 h and incubated with RB5 50 μM or FBS 20% for 15 min at 37°C. To assess JNK and phospho‐JNK levels, cells were incubated with RB5 50 μM or anisomycin 5 μM for 30 min at 37°C. For immunofluorescence analysis, cells were serum‐starved for 24 h and incubated with 50 μM RB5 or 20% FBS for 15 min at 37°C.
Cells were collected in ice‐cold lysis buffer (20 mM Tris HCl pH 7.5, 150 mM NaCl, 1% Triton, 1 mM EDTA, complete EDTA‐free protease inhibitor cocktail (Roche), 1 mM sodium orthovanadate, 1 mM sodium fluoride, 1 mM b‐glycerophosphate). Protein concentration was determined with the Biorad DC protein assay. Equal amounts of proteins ([…]) were boiled in sample buffer, separated by SDS‐PAGE, and transferred to nitrocellulose membranes (Amersham). […]

pAcH3 = assay: Striatal pAcH3 immunofluorescence 1 h after single injection; type: in vivo, mouse; conditions: single injection 20 mg/kg i.p., individual mice
Experimental: Immunofluorescence was performed as described in Papale et al ([2016]). Briefly, 1 h after blocking in 5% normal goat serum, slices were incubated overnight at 4°C with the following primary antibodies: anti‐phospho (Ser10)‐acetylated (Lys14) histone H3 (1:1,000, Millipore), anti‐phospho‐S6 ribosomal protein (Ser235/236) (1:200, Cell Signaling Technology) anti‐phospho‐S6 ribosomal protein (Ser240/244) (1:200, Cell Signaling), cleaved caspase‐3 (1:200, Cell Signaling Technology), anti‐mutant Huntingtin (1:100, Developmental Studies Hybridoma Bank, University of Iowa, #MW8), and NeuN (1:1,000, Millipore). Corresponding secondary antibodies (Alexa Fluor 546 conjugated anti‐mouse (1:200, Thermo Fisher Scientific), Alexa Fluor 488 conjugated anti‐rabbit (1:500, Thermo Fisher Scientific) and Pacific Blue goat anti‐mouse (1:200, Thermo Fisher Scientific) were incubated at room temperature for 1 h. Sections stained for mutant Huntingtin were incubated with DAPI for 20 min. Sections were subsequently mounted with fluorescent mounting medium (DAKO). Single and double‐labeled images ([…]) were obtained at 40× magnification from the striatum using a laser scanning confocal microscope (Leica SP2) equipped with the corresponding lasers and appropriate filter sets to avoid the crosstalk between the fluorochromes.
(§1) In ex‐vivo and in‐vivo immunofluorescence experiments, the number of p‐S6 or p‐AcH3 immunoreactive neurons among NeuN‐positive neurons was counted in 2–3 consecutive striatal sections per mouse in four fields per section. Caspase 3‐positive cells were quantified among NeuN‐positive neurons in each slide and expressed as percentage (ratio between caspase‐3‐positive cells and total NeuN‐positive neurons) for each field acquired through the slide. The number of cells showing mutant Huntingtin inclusions were expressed as a percentage of mutant Huntingtin‐positive cells among DAPI‐positive cells.

[1] = test system: S6 (Ser240/244) phosphorylation; assay: Striatal pS6 (Ser240/244) immunofluorescence 1 h after single injection; type: in vivo, mouse; conditions: single injection 20 mg/kg i.p., individual mice
Experimental: Immunofluorescence was performed as described in Papale et al ([2016]). Briefly, 1 h after blocking in 5% normal goat serum, slices were incubated overnight at 4°C with the following primary antibodies: anti‐phospho (Ser10)‐acetylated (Lys14) histone H3 (1:1,000, Millipore), anti‐phospho‐S6 ribosomal protein (Ser235/236) (1:200, Cell Signaling Technology) anti‐phospho‐S6 ribosomal protein (Ser240/244) (1:200, Cell Signaling), cleaved caspase‐3 (1:200, Cell Signaling Technology), anti‐mutant Huntingtin (1:100, Developmental Studies Hybridoma Bank, University of Iowa, #MW8), and NeuN (1:1,000, Millipore). […]
as §1

cleaved caspase-3 = assay: Cleaved caspase-3 in SN, MPTP model; type: in vivo, mouse
Description: as §1
1‐methyl‐4‐phenyl‐1,2,3,6‐tetrahydropyridine‐hydrochloride (MPTP‐HCl, Sigma, Italy) was dissolved in saline and administered i.p. once daily at a dose of 20 mg/kg for 4 days. RB5 (20 mg/kg i.p.) was injected daily 30 min before MPTP.

**Q.** For “GRKKRRQRRRPPQGGGGGEPRRTEGVGPGVPGEVEMVKGQPFDV [RB5, six D-amino acids, acetylated N-terminus]”, which “p44/p42 protein levels (Western blot)” value (p44 ERK1 and p42 ERK2) is on record?
**A.** without affecting p44/p42 protein levels

**Q.** And the “p44 ERK1 and p42 ERK2 phosphorylation (Western blot)” value (p44 ERK1 and p42 ERK2)?
**A.** sustained a strong p44 ERK1 and p42 ERK2 phosphorylation

**Q.** And the “pAcH3 positive neurons in striatum” value (pAcH3; ERK1+/+ (WT) mice)?
**A.** enhanced pERK and pAcH3 in WT

**Q.** What about the “pAcH3 positive neurons in striatum” value (pAcH3; ERK1-/- mice) of the same sequence?
**A.** not in ERK1 KO mice

**Q.** And the “pAcH3 positive neurons in striatum” value (pAcH3; 1 h)?
**A.** selectively activated

**Q.** What about the “pS6 (Ser240/244) positive neurons in striatum” value [1] of the same sequence?
**A.** no effect

**Q.** What about the “Apoptotic cell death (cleaved caspase-3-positive cells)” value (cleaved caspase-3; MPTP 20 mg/kg i.p. and RB5 20 mg/kg i.p. for 4 days) of the same sequence?
**A.** counteracted apoptotic cell death

**Q.** What about the “cleaved caspase-3 in SN (Fig 5 panel h)” value (cleaved caspase-3; MPTP model, individual animals) of the same sequence?
**A.** 15.9941 and 14.3542 and 22.1236 and 12.1639 and 12.097 and 11.2152 and 20.664 and 29.614 and 13.0618 and 19.582 and 19.4193 and 16.215 and 16.8899 and 24.4755
